Data as given in patent US9637491B2, “Pyrazolo[4,3-D]pyrimidines as kinase inhibitors” (Origenis GmbH, priority 2012, dated 2017).

Target: T1, SYK kinase (Homo sapiens, UniProt P43405)
T1 construct: purchased Invitrogen, Carlsbad
Assay: SYK assay (OMNIA Kinase Assay, Invitrogen)
Assay type: biochemical
Conditions: SYK Activities; 1 mM ATP, 10 μM Omnia Peptide Substrate Tyr 7, 30° C.
How it was run: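 SYK was added last to start phosphorylation of a chelation-enhanced SOX peptide substrate (10 μM) in the presence of 1 mM ATP and 0.2 mM DTT at 30° C. Kinetic readings at λex 360/λem 485 nm over 30 min gave velocities, fitted sigmoidally against compound concentration to give IC50.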

Structure (SMILES) | IC50 [nM]
CC(C)n1ncc(Nc2nc(C3CCC3)nc3cn[nH]c23)c1Cl [Example 312, N-(5-chloro-1-isopropyl-1H-pyrazol-4-yl)-5-cyclobutyl-1H-pyrazolo[4,3-d]pyrimidin-7-amine] | 100 to 1000
CC(C)(C)n1cc(Nc2nc(-c3cccc(NS(C)(=O)=O)c3)nc3cn[nH]c23)cn1 [Example 258, N-(3-(7-((1-(tert-butyl)-1H-pyrazol-4-yl)amino)-1H-pyrazolo[4,3-d]pyrimidin-5-yl)phenyl)methanesulfonamide] | 100 to 1000
CN1C(=O)COc2ccc(Nc3nc(-c4ccc5cn[nH]c5c4)nc4cn[nH]c34)cc21 [Example 470, 6-((5-(1H-indazol-6-yl)-1H-pyrazolo[4,3-d]pyrimidin-7-yl)amino)-4-methyl-2H-benzo[b][1,4]oxazin-3(4H)-one] | 100 to 1000
CN(C)C(=O)Cn1cc(Nc2nc(-c3ccco3)nc3cn[nH]c23)cn1 [Example 452, 2-(4-((5-(furan-2-yl)-1H-pyrazolo[4,3-d]pyrimidin-7-yl)amino)-1H-pyrazol-1-yl)-N,N-dimethylacetamide] | 100 to 1000
CN1CCC(n2cc(Nc3nc(-c4ncco4)nc4cn[nH]c34)cn2)CC1 [Example 255, N-(1-(1-methylpiperidin-4-yl)-1H-pyrazol-4-yl)-5-(oxazol-2-yl)-1H-pyrazolo[4,3-d]pyrimidin-7-amine] | 100 to 1000
COCCn1cc(Nc2nc(C(C)C)nc3cn[nH]c23)cn1 [Example 185, 5-isopropyl-N-(1-(2-methoxyethyl)-1H-pyrazol-4-yl)-1H-pyrazolo[4,3-d]pyrimidin-7-amine] | 100 to 1000
CN1CCC(n2cc(Nc3nc(-c4cccs4)nc4cn[nH]c34)cn2)CC1 [Example 433, N-(1-(1-methylpiperidin-4-yl)-1H-pyrazol-4-yl)-5-(thiophen-2-yl)-1H-pyrazolo[4,3-d]pyrimidin-7-amine] | < 10
CC(C)(C)c1nc(Nc2cnn(C3CC3)c2)c2[nH]ncc2n1 [Example 273, 5-(tert-butyl)-N-(1-cyclopropyl-1H-pyrazol-4-yl)-1H-pyrazolo[4,3-d]pyrimidin-7-amine] | 100 to 1000
CC(C)Cn1cc(Nc2nc(-c3c(F)cccc3F)nc3cn[nH]c23)cn1 [Example 440, 5-(2,6-difluorophenyl)-N-(1-isobutyl-1H-pyrazol-4-yl)-1H-pyrazolo[4,3-d]pyrimidin-7-amine] | 100 to 1000
Nc1ccccc1-c1nc(Nc2cnn(C3CCOCC3)c2)c2n[nH]cc2n1 [Example 531, 5-(2-aminophenyl)-N-(1-(tetrahydro-2H-pyran-4-yl)-1H-pyrazol-4-yl)-2H-pyrazolo[4,3-d]pyrimidin-7-amine] | 100 to 1000
FC(F)(F)Cn1cc(Nc2nc(-c3ccoc3)nc3cn[nH]c23)cn1 [Example 375, 5-(furan-3-yl)-N-(1-(2,2,2-trifluoroethyl)-1H-pyrazol-4-yl)-1H-pyrazolo[4,3-d]pyrimidin-7-amine] | 100 to 1000
CC1CC1c1nc(Nc2cnn(C3CCOCC3)c2)c2[nH]ncc2n1 (centres unmarked) [Example 103, 5-(2-methylcyclopropyl)-N-(1-(tetrahydro-2H-pyran-4-yl)-1H-pyrazol-4-yl)-1H-pyrazolo[4,3-d]pyrimidin-7-amine] | 100 to 1000
c1nn(C2CC2)cc1Nc1nc(C2CC2)nc2cn[nH]c12 [Example 282, 5-cyclopropyl-N-(1-cyclopropyl-1H-pyrazol-4-yl)-1H-pyrazolo[4,3-d]pyrimidin-7-amine] | 10 to 100
CC(C)c1nc(Nc2cnn(C3CCN(C)CC3)c2)c2[nH]ncc2n1 [Example 184, 5-isopropyl-N-(1-(1-methylpiperidin-4-yl)-1H-pyrazol-4-yl)-1H-pyrazolo[4,3-d]pyrimidin-7-amine] | 100 to 1000
COc1ccc(Nc2nc(-c3ccoc3)nc3cn[nH]c23)cc1OC [Example 95, N-(3,4-dimethoxyphenyl)-5-(furan-3-yl)-1H-pyrazolo[4,3-d]pyrimidin-7-amine] | 100 to 1000
CN1CCC(n2cc(Nc3nc(-c4nccs4)nc4cn[nH]c34)cn2)CC1 [Example 535, N-(1-(1-methylpiperidin-4-yl)-1H-pyrazol-4-yl)-5-(thiazol-2-yl)-1H-pyrazolo[4,3-d]pyrimidin-7-amine] | 10 to 100
CC(C)(O)Cn1cc(Nc2nc(-c3ccc4cn[nH]c4c3)nc3cn[nH]c23)cn1 [Example 449, 1-(4-((5-(1H-indazol-6-yl)-1H-pyrazolo[4,3-d]pyrimidin-7-yl)amino)-1H-pyrazol-1-yl)-2-methylpropan-2-ol] | 10 to 100
COCC(C)(C)n1cc(Nc2nc(-c3ccoc3)nc3cn[nH]c23)cn1 [Example 290, 5-(furan-3-yl)-N-(1-(1-methoxy-2-methylpropan-2-yl)-1H-pyrazol-4-yl)-1H-pyrazolo[4,3-d]pyrimidin-7-amine] | 100 to 1000
COc1ccc(Nc2nc(-c3cccc(C(=O)Nc4ccc(-c5ncco5)cc4)c3)nc3cn[nH]c23)cc1OC [Example 321, 3-(7-((3,4-dimethoxyphenyl)amino)-1H-pyrazolo[4,3-d]pyrimidin-5-yl)-N-(4-(oxazol-2-yl)phenyl)benzamide] | 100 to 1000

Structure (SMILES) | IC50 [nM]
CS(=O)(=O)Nc1cccc(-c2nc(Nc3cnn(CCO)c3)c3[nH]ncc3n2)c1 [Example 262, N-(3-(7-((1-(2-hydroxyethyl)-1H-pyrazol-4-yl)amino)-1H-pyrazolo[4,3-d]pyrimidin-5-yl)phenyl)methanesulfonamide] | 100 to 1000
Cc1c(Nc2nc(C3CCC3)nc3cn[nH]c23)cnn1C(C)C [Example 325, 5-cyclobutyl-N-(1-isopropyl-5-methyl-1H-pyrazol-4-yl)-1H-pyrazolo[4,3-d]pyrimidin-7-amine] | 100 to 1000
CC(C)n1cc(Nc2nc(-c3cccs3)nc3cn[nH]c23)cn1 [Example 431, N-(1-isopropyl-1H-pyrazol-4-yl)-5-(thiophen-2-yl)-1H-pyrazolo[4,3-d]pyrimidin-7-amine] | 10 to 100
c1ccc(Cn2cc(-c3nc(Nc4ccc(N5CCOCC5)cc4)c4[nH]ncc4n3)cn2)cc1 [Example 460, 5-(1-benzyl-1H-pyrazol-4-yl)-N-(4-morpholinophenyl)-1H-pyrazolo[4,3-d]pyrimidin-7-amine] | 10 to 100
COCCCn1cc(Nc2nc(-c3cccs3)nc3cn[nH]c23)cn1 [Example 429, N-(1-(3-methoxypropyl)-1H-pyrazol-4-yl)-5-(thiophen-2-yl)-1H-pyrazolo[4,3-d]pyrimidin-7-amine] | 10 to 100
CC(C)n1ncc(Nc2nc(C3CC3)nc3cn[nH]c23)c1Cl [Example 297, N-(5-chloro-1-isopropyl-1H-pyrazol-4-yl)-5-cyclopropyl-1H-pyrazolo[4,3-d]pyrimidin-7-amine] | 100 to 1000
CC(C)(O)Cn1cc(Nc2nc(-c3ccco3)nc3cn[nH]c23)cn1 [Example 369, 1-(4-((5-(furan-2-yl)-1H-pyrazolo[4,3-d]pyrimidin-7-yl)amino)-1H-pyrazol-1-yl)-2-methylpropan-2-ol] | 100 to 1000
CN1CCC(n2cc(Nc3nc(-c4cccc(NS(C)(=O)=O)c4)nc4cn[nH]c34)cn2)CC1 [Example 264, N-(3-(7-((1-(1-methylpiperidin-4-yl)-1H-pyrazol-4-yl)amino)-1H-pyrazolo[4,3-d]pyrimidin-5-yl)phenyl)methanesulfonamide] | 10 to 100
CC(=O)N1CCN(c2ccc(Nc3nc(-c4ccoc4)nc4cn[nH]c34)cc2)CC1 [Example 96, 1-(4-(4-((5-(furan-3-yl)-1H-pyrazolo[4,3-d]pyrimidin-7-yl)amino)phenyl)piperazin-1-yl)ethan-1-one] | 10 to 100
O=C1OCCN1c1ccc(Nc2nc(-c3ccco3)nc3cn[nH]c23)cc1 [Example 115, 3-(4-((5-(furan-2-yl)-1H-pyrazolo[4,3-d]pyrimidin-7-yl)amino)phenyl)oxazolidin-2-one] | 10 to 100
CN1CCC(n2cc(Nc3nc(-c4nc5ccccc5o4)nc4cn[nH]c34)cn2)CC1 [Example 445, 5-(benzo[d]oxazol-2-yl)-N-(1-(1-methylpiperidin-4-yl)-1H-pyrazol-4-yl)-1H-pyrazolo[4,3-d]pyrimidin-7-amine] | 10 to 100
CC(C)Cn1cc(Nc2nc(-c3ccco3)nc3cn[nH]c23)cn1 [Example 238, 5-(furan-2-yl)-N-(1-isobutyl-1H-pyrazol-4-yl)-1H-pyrazolo[4,3-d]pyrimidin-7-amine] | 10 to 100
COCC(COC)n1cc(Nc2nc(-c3ccc4cn[nH]c4c3)nc3cn[nH]c23)cn1 [Example 448, N-(1-(1,3-dimethoxypropan-2-yl)-1H-pyrazol-4-yl)-5-(1H-indazol-6-yl)-1H-pyrazolo[4,3-d]pyrimidin-7-amine] | 10 to 100
COc1cc(Nc2nc(-c3c(F)cccc3Cl)nc3cn[nH]c23)ccc1N1CCOCC1 [Example 514, 5-(2-chloro-6-fluorophenyl)-N-(3-methoxy-4-morpholinophenyl)-1H-pyrazolo[4,3-d]pyrimidin-7-amine] | 10 to 100
COCCCn1cc(Nc2nc(-c3nc4ccccc4s3)nc3cn[nH]c23)cn1 [Example 412, 5-(benzo[d]thiazol-2-yl)-N-(1-(3-methoxypropyl)-1H-pyrazol-4-yl)-1H-pyrazolo[4,3-d]pyrimidin-7-amine] | < 10
CC(=O)N1CCC(n2cc(Nc3nc(C4CCC4)nc4cn[nH]c34)cn2)CC1 [Example 205, 1-(4-(4-((5-cyclobutyl-1H-pyrazolo[4,3-d]pyrimidin-7-yl)amino)-1H-pyrazol-1-yl)piperidin-1-yl)ethan-1-one] | 10 to 100
COc1cc(Nc2nc(-c3ccon3)nc3cn[nH]c23)ccc1N1CCOCC1 [Example 76, 5-(isoxazol-3-yl)-N-(3-methoxy-4-morpholinophenyl)-1H-pyrazolo[4,3-d]pyrimidin-7-amine] | 100 to 1000
OC1CCN(c2ccc(Nc3nc(-c4ccoc4)nc4cn[nH]c34)cc2)CC1 [Example 443, 1-(4-((5-(furan-3-yl)-1H-pyrazolo[4,3-d]pyrimidin-7-yl)amino)phenyl)piperidin-4-ol] | 10 to 100
Fc1cc(Nc2nc(C3CC3)nc3cn[nH]c23)ccc1N1CCOCC1 [Example 34, 5-cyclopropyl-N-(3-fluoro-4-morpholinophenyl)-1H-pyrazolo[4,3-d]pyrimidin-7-amine] | 100 to 1000
